Results as given in patent US20100286181A1, “PYRROLE DERIVATIVES WITH ANTIBACTERIAL ACTIVITY” (ASTRAZENECA AB, priority 2006, published 2010).

What follows are compounds tested against GyrB ATPase activity (E. coli GyrA, E. coli GyrB) (Escherichia coli, UniProt P0AES6) (assay: GyrB ATPase inhibition activity assay (ammonium molybdate/malachite green phosphate detection)). Settings: figure quoted may be an average of two or more results.
Format: biochemical
Method: Compounds may be tested for inhibition of GyrB ATPase activity using an ammonium molybdate/malachite green-based phosphate detection assay (Lanzetta, P. A., L. J. Alvarez, P. S. Reinach, and O. A. Candia, 1979, 100: 95-97). Assays can be performed in multiwell plates in 100 μl reactions containing: 50 mM HEPES buffer pH 7.5, 75 mM ammonium acetate, 5.5 mM magnesium chloride, 0.5 mM ethylenediaminetetraacetic acid, 5% glycerol, 1 mM 1,4-Dithio-DL-threitol, 200 nM bovine serum albumin, 5 μg/ml sheared salmon sperm DNA, 2.5 nM E. coli GyrA, 2.5 nM E. coli GyrB, 250 μM ATP, and compound in dimethylsulfoxide. Reactions can be quenched with 150 μl of ammonium molybdate/malachite green detection reagent containing 1.2 mM malachite green hydrochloride, 8.5 mM ammonium molybdate tetrahydrate, and 1 M hydrochloric acid.
Compounds of the Examples could be expected to have IC50 values of <200 μg/ml in one or both assays described herein above. For Example the following results were obtained in a GyrB ATPase inhibition activity assay substantially similar to the above wherein the figure quoted may be an average of two or more results
For CCOC(=O)c1sc(N2CCC(NC(=O)c3[nH]c(C)c(Cl)c3Cl)C3(C2)OCCCO3)nc1C(=O)NCCOC (centres unmarked) [Example 7, Ethyl 2-(11-{[(3,4-dichloro-5-methyl-1H-pyrrol-2-yl)carbonyl]amino}-1,5-dioxa-8-azaspiro[5.5]undec-8-yl)-4-{[(2-methoxyethyl)amino]carbonyl}-1,3-thiazole-5-carboxylate], the IC50 was 18.5 nM.
In the case of CNC(=O)c1nc(N2CCC(NC(=O)c3[nH]c(C)c(Cl)c3Cl)C3(C2)OCCCO3)sc1C(=O)OC(C)C (centres unmarked) [Example 8, Isopropyl 2-(11-{[(3,4-dichloro-5-methyl-1H-pyrrol-2-yl)carbonyl]amino}-1,5-dioxa-8-azaspiro[5.5]undec-8-yl)-4-[(methylamino)carbonyl]-1,3-thiazole-5-carboxylate], the IC50 is reported as 73.6 nM.
Compound COC(=O)c1sc(N2CCC(NC(=O)c3[nH]c(C)c(Cl)c3Cl)C3(C2)OCCCO3)nc1C(C)=O (centres unmarked) [Example 9, Methyl 4-acetyl-2-(11-{[(3,4-dichloro-5-methyl-1H-pyrrol-2-yl)carbonyl]amino}-1,5-dioxa-8-azaspiro[5.5]undec-8-yl)-1,3-thiazole-5-carboxylate] has an IC50 of 52.2 nM.
Compound COC(=O)c1cnc(N2CCC(NC(=O)c3[nH]c(C)c(Cl)c3Cl)C(OC)(OC)C2)s1 (centres unmarked) [Example 10, Methyl 2-(4-{[(3,4-dichloro-5-methyl-1H-pyrrol-2-yl)carbonyl]amino}-3,3-dimethoxypiperidin-1-yl)-1,3-thiazole-5-carboxylate] has an IC50 of 169 nM.
For Cc1[nH]c(C(=O)NC2CCN(c3ncc(C(=O)O)s3)CC23OCCO3)c(Cl)c1Cl (centres unmarked) [Example 11, 2-(10-{[(3,4-Dichloro-5-methyl-1H-pyrrol-2-yl)carbonyl]amino}-1,4-dioxa-7-azaspiro[4.5]dec-7-yl)-1,3-thiazole-5-carboxylic acid], the IC50 was 17.8 nM.
For CC(=O)c1nc(N2CCC(NC(=O)c3[nH]c(C)c(Cl)c3Cl)C3(C2)OCCO3)sc1C(=O)O (centres unmarked) [Example 12, 4-Acetyl-2-(10-{[(3,4-dichloro-5-methyl-1H-pyrrol-2-yl)carbonyl]amino}-1,4-dioxa-7-azaspiro[4.5]dec-7-yl)-1,3-thiazole-5-carboxylic acid], the IC50 was under 83.1 nM.
CNC(=O)c1nc(N2CCC(NC(=O)c3[nH]c(C)c(Cl)c3Cl)C3(C2)OCCO3)sc1C(=O)O (centres unmarked) [Example 13, 2-(10-{[(3,4-Dichloro-5-methyl-1H-pyrrol-2-yl)carbonyl]amino}-1,4-dioxa-7-azaspiro[4.5]dec-7-yl)-4-[(methylamino)carbonyl]-1,3-thiazole-5-carboxylic acid] was tested, and the IC50 was under 69 nM.
Work on COCCNC(=O)c1nc(N2CCC(NC(=O)c3[nH]c(C)c(Cl)c3Cl)C3(C2)OCCO3)sc1C(=O)O (centres unmarked) [Example 14, 2-(10-{[(3,4-Dichloro-5-methyl-1H-pyrrol-2-yl)carbonyl]amino}-1,4-dioxa-7-azaspiro[4.5]dec-7-yl)-4-{[(2-methoxyethyl)amino]carbonyl}-1,3-thiazole-5-carboxylic acid] yielded an IC50 of under 9.77 nM.
COCCNC(=O)c1nc(N2CCC(NC(=O)c3[nH]c(C)c(Cl)c3Cl)C3(C2)OCCCO3)sc1C(=O)O (centres unmarked) [Example 17, 2-(11-{[(3,4-Dichloro-5-methyl-1H-pyrrol-2-yl)carbonyl]amino}-1,5-dioxa-8-azaspiro[5.5]undec-8-yl)-4-{[(2-methoxyethyl)amino]carbonyl}-1,3-thiazole-5-carboxylic acid] gave an IC50 of under 9.77 nM.
In the case of CC(=O)c1nc(N2CCC(NC(=O)c3[nH]c(C)c(Cl)c3Cl)C3(C2)OCCCO3)sc1C(=O)O (centres unmarked) [Example 19, 4-Acetyl-2-(11-{[(3,4-dichloro-5-methyl-1H-pyrrol-2-yl)carbonyl]amino}-1,5-dioxa-8-azaspiro[5.5]undec-8-yl)-1,3-thiazole-5-carboxylic acid], the IC50 is reported as under 9.77 nM.
With COCCNC(=O)c1nc(N2CCC(NC(=O)c3[nH]c(C)c(Cl)c3Cl)/C(=N/OC)C2)sc1C(=O)O (centres unmarked) [Example 23, 2-[(3E)-4-{[(3,4-Dichloro-5-methyl-1H-pyrrol-2-yl)carbonyl]amino}-3-(methoxyimino)piperidin-1-yl]-4-{[(2-methoxyethyl)amino]carbonyl}-1,3-thiazole-5-carboxylic acid] the IC50 was under 9.77 nM.
